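Exposure lasted 48 hours, with cells grown in 96-well plates and compounds tested at five concentrations. GI50: concentration for 50% inhibition of growth.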 Activity calls are given as the source filed them. Rule as the data show it: active = GI50 up to about 1.1 µM and inactive = higher.
Columns and labels:
Assay in all cases: NCI tumour cell line growth inhibition, 48 h
LXFL 529 = test system: LXFL 529
DMS-114 = test system: DMS-114
UACC-62 = test system: UACC-62
HCT-116 = test system: HCT-116
SK-MEL-5 = test system: SK-MEL-5
SR = test system: SR
786-0 = test system: 786-0
KM12 = test system: KM12
RPMI-8226 = test system: RPMI-8226
Malme-3M = test system: Malme-3M
CCRF-CEM = test system: CCRF-CEM
UACC-257 = test system: UACC-257
HT-29 = test system: HT-29
OVCAR-3 = test system: OVCAR-3
OVCAR-5 = test system: OVCAR-5
A549 = test system: A549
RXF 393 = test system: RXF 393

Measured: GI50

C[n+]1cn(CC(=O)c2ccccc2)c(C(N)=O)c1N
inactive: LXFL 529 61.7 µM | DMS-114 25 µM | UACC-62 > 100 µM | HCT-116 24.2 µM | SK-MEL-5 33 µM | SR > 100 µM | 786-0 43.7 µM | KM12 > 100 µM | RPMI-8226 45.1 µM | Malme-3M > 100 µM | CCRF-CEM > 100 µM | UACC-257 > 100 µM | HT-29 > 100 µM | OVCAR-3 > 100 µM | OVCAR-5 > 100 µM | A549 > 100 µM

O/N=C1\C(=C\c2ccc3c(c2)OCCO3)CCCC1C(NO)c1ccc2c(c1)OCCO2 (stereo not given)
inactive: LXFL 529 20.2 µM | DMS-114 20.1 µM | UACC-62 16.5 µM | HCT-116 18.7 µM | SK-MEL-5 16.4 µM | SR 14.3 µM | 786-0 32.1 µM | KM12 21.4 µM | RPMI-8226 16.3 µM | Malme-3M 25.4 µM | CCRF-CEM 16.6 µM | UACC-257 20.4 µM | RXF 393 25.8 µM | HT-29 17.5 µM | OVCAR-3 18.3 µM | OVCAR-5 32.6 µM | A549 25.2 µM

Cc1ccc(C)c(N2C(=O)C(=O)C(c3nc4ccccc4s3)/C(=N/N)C2=O)c1 (stereo not given)
inactive: LXFL 529 > 100 µM | DMS-114 > 100 µM | UACC-62 > 100 µM | HCT-116 > 34.4 µM | SK-MEL-5 > 100 µM | SR > 100 µM | 786-0 > 100 µM | KM12 > 100 µM | RPMI-8226 > 100 µM | Malme-3M > 100 µM | CCRF-CEM > 100 µM | UACC-257 > 27.9 µM | RXF 393 > 100 µM | HT-29 > 100 µM | OVCAR-3 > 100 µM | OVCAR-5 > 100 µM | A549 > 100 µM

CC(CC(=O)Nc1ccc(NC(=O)CC(C)/N=N\C(N)=S)cc1)/N=N\C(N)=S (stereo not given)
inactive: LXFL 529 > 100 µM | DMS-114 53.7 µM | UACC-62 > 100 µM | HCT-116 > 100 µM | SK-MEL-5 > 100 µM | SR 48.9 µM | 786-0 > 100 µM | KM12 > 100 µM | RPMI-8226 > 100 µM | Malme-3M > 100 µM | CCRF-CEM > 100 µM | UACC-257 > 100 µM | RXF 393 > 100 µM | HT-29 > 100 µM | OVCAR-3 > 100 µM | OVCAR-5 > 100 µM | A549 > 100 µM

Cc1ccccc1C(=O)c1cc(O)ccc1O
inactive: LXFL 529 > 100 µM | DMS-114 45.7 µM | UACC-62 65 µM | HCT-116 > 100 µM | SK-MEL-5 > 100 µM | SR 78 µM | 786-0 > 100 µM | KM12 43 µM | RPMI-8226 > 100 µM | Malme-3M > 100 µM | CCRF-CEM > 100 µM | UACC-257 > 100 µM | RXF 393 > 100 µM | HT-29 35.9 µM | OVCAR-3 > 100 µM | OVCAR-5 > 100 µM | A549 > 100 µM

Cn1cc2ccccc2c1-c1nc(F)nc(F)n1
inactive: LXFL 529 > 100 µM | DMS-114 > 100 µM | HCT-116 > 100 µM | SK-MEL-5 > 100 µM | SR 41.6 µM | 786-0 > 100 µM | KM12 63.5 µM | RPMI-8226 33 µM | Malme-3M > 100 µM | CCRF-CEM 97.9 µM | RXF 393 > 100 µM | HT-29 > 100 µM | OVCAR-3 > 100 µM | OVCAR-5 > 100 µM | A549 > 100 µM

O=C(C#Cc1ccccc1)N1c2ccccc2CC1c1c[nH]c2ccccc12 (stereo not given)
inactive: LXFL 529 12.3 µM | DMS-114 12.7 µM | UACC-62 7.82 µM | HCT-116 13.4 µM | SK-MEL-5 14.4 µM | SR 12.3 µM | 786-0 16.2 µM | KM12 15.6 µM | RPMI-8226 13 µM | Malme-3M 14.9 µM | CCRF-CEM 4.63 µM | UACC-257 19.1 µM | RXF 393 4.48 µM | HT-29 18 µM | OVCAR-3 14.6 µM | OVCAR-5 24.8 µM | A549 18.6 µM

COc1ccc2c3c([nH]c(=O)c2c1C(=O)O)-c1ccccc1CC3
inactive: LXFL 529 > 100 µM | DMS-114 > 100 µM | HCT-116 > 100 µM | SK-MEL-5 > 100 µM | SR > 100 µM | 786-0 > 100 µM | KM12 > 100 µM | RPMI-8226 > 100 µM | Malme-3M > 100 µM | CCRF-CEM > 100 µM | RXF 393 > 100 µM | HT-29 > 100 µM | OVCAR-3 > 100 µM | OVCAR-5 > 100 µM | A549 > 100 µM

OCC1CC2CC1C1(C2)OCCO1 (stereo not given)
inactive: LXFL 529 > 100 µM | DMS-114 > 100 µM | UACC-62 > 100 µM | HCT-116 > 100 µM | SK-MEL-5 > 100 µM | SR > 100 µM | 786-0 > 100 µM | KM12 > 100 µM | RPMI-8226 > 100 µM | Malme-3M > 100 µM | CCRF-CEM > 100 µM | UACC-257 > 100 µM | RXF 393 > 100 µM | HT-29 > 100 µM | OVCAR-3 > 100 µM | OVCAR-5 > 100 µM | A549 > 100 µM

O=C1Nc2cccc3ncn(c23)C2=C1CCCC2
inactive: LXFL 529 > 100 µM | DMS-114 > 100 µM | UACC-62 > 100 µM | HCT-116 > 100 µM | SK-MEL-5 > 100 µM | SR > 100 µM | 786-0 > 100 µM | KM12 > 100 µM | RPMI-8226 > 100 µM | Malme-3M > 100 µM | CCRF-CEM > 100 µM | UACC-257 > 100 µM | RXF 393 > 100 µM | OVCAR-5 > 100 µM | A549 > 100 µM

O=Cc1[nH]c2ccccc2c1Br
inactive: LXFL 529 25.5 µM | DMS-114 18.5 µM | UACC-62 16.9 µM | HCT-116 18.5 µM | SK-MEL-5 16.5 µM | SR 21.7 µM | 786-0 28 µM | KM12 26.3 µM | Malme-3M 18.5 µM | CCRF-CEM 37.4 µM | UACC-257 28.5 µM | RXF 393 25.4 µM | HT-29 25.1 µM | OVCAR-3 21.8 µM | OVCAR-5 98.4 µM | A549 > 100 µM

COC1CC(O[C@H]2CC[C@@]3(C)C(=CCC4(O)C3CCC35C(=O)OC6(C)O[C@@]43CCC65)C2)OC(C)C1O (stereo not given in full)
inactive: LXFL 529 > 100 µM | DMS-114 > 100 µM | UACC-62 > 100 µM | HCT-116 > 100 µM | SK-MEL-5 > 100 µM | SR > 100 µM | 786-0 > 100 µM | KM12 > 100 µM | RPMI-8226 > 100 µM | Malme-3M > 100 µM | CCRF-CEM > 100 µM | UACC-257 > 100 µM | RXF 393 > 100 µM | HT-29 > 100 µM | OVCAR-5 > 100 µM | A549 > 100 µM
